Values joined by “and” are separate entries in the source; they are usually repeats but may differ in a detail not shown here. Identical values can stand only once. Inconclusive results and toxic doses are left out. The calls were made as follows: active = survival T/C of 150% or more; inactive = T/C below 125% in these data.
System: P388 leukemia ip, CD2F1 mice, survival T/C
Assay: NCI In Vivo Anticancer Drug Screen. Data for tumor model P388 Leukemia (intraperitoneal) in CD2F1 (CDF1) mice
Settings: endpoint: median survival time, higher = longer survival
Method in brief: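 Mice carrying the transplanted tumor received test compound or vehicle. Survival was recorded in each group, and the value is the treated-group measurement divided by that of the vehicle-treated control group.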

[1] = dose: 25.0 mg/kg/injection, schedule: Q01DX005 (ip), vehicle: Klucel (hydroxypropylcellulose) (HPC)
[2] = dose: 50.0 mg/kg/injection, schedule: Q01DX005 (ip), vehicle: Klucel (hydroxypropylcellulose) (HPC)
[3] = dose: 50.0 mg/kg/injection, schedule: Q01DX009 (ip), vehicle: saline with Tween-80
[4] = dose: 100.0 mg/kg/injection, schedule: Q01DX009 (ip), vehicle: saline with Tween-80
[5] = dose: 60.0 mg/kg/injection, schedule: Q01DX005 (ip), vehicle: Klucel (hydroxypropylcellulose) (HPC)
[6] = dose: 120.0 mg/kg/injection, schedule: Q01DX005 (ip), vehicle: Klucel (hydroxypropylcellulose) (HPC)
[7] = dose: 240.0 mg/kg/injection, schedule: Q01DX005 (ip), vehicle: Klucel (hydroxypropylcellulose) (HPC)
[8] = dose: 6.25 mg/kg/injection, schedule: Q01DX009 (ip), vehicle: Klucel (hydroxypropylcellulose) (HPC)
[9] = dose: 12.5 mg/kg/injection, schedule: Q01DX009 (ip), vehicle: Klucel (hydroxypropylcellulose) (HPC)
[10] = dose: 25.0 mg/kg/injection, schedule: Q01DX009 (ip), vehicle: Klucel (hydroxypropylcellulose) (HPC)
[11] = dose: 50.0 mg/kg/injection, schedule: Q01DX009 (ip), vehicle: Klucel (hydroxypropylcellulose) (HPC)
[12] = dose: 100.0 mg/kg/injection, schedule: Q01DX009 (ip), vehicle: Klucel (hydroxypropylcellulose) (HPC)
[13] = dose: 50.0 mg/kg/injection, schedule: Q04DX003 (ip), vehicle: saline with Tween-80
[14] = dose: 100.0 mg/kg/injection, schedule: Q04DX003 (ip), vehicle: saline with Tween-80
[15] = dose: 200.0 mg/kg/injection, schedule: Q04DX003 (ip), vehicle: saline with Tween-80
[16] = dose: 100.0 mg/kg/injection, schedule: Q01DX005 (ip), vehicle: Klucel (hydroxypropylcellulose) (HPC)
[17] = dose: 200.0 mg/kg/injection, schedule: Q01DX005 (ip), vehicle: Klucel (hydroxypropylcellulose) (HPC)
[18] = dose: 100.0 mg/kg/injection, schedule: Q01DX005 (ip), vehicle: saline with Tween-80
[19] = dose: 200.0 mg/kg/injection, schedule: Q01DX005 (ip), vehicle: saline with Tween-80
[20] = dose: 50.0 mg/kg/injection, schedule: Q04DX002 (ip), vehicle: saline with Tween-80
[21] = dose: 100.0 mg/kg/injection, schedule: Q04DX002 (ip), vehicle: saline with Tween-80
[22] = dose: 10.0 mg/kg/injection, schedule: Q01DX009 (ip), vehicle: saline with Tween-80
[23] = dose: 100.0 mg/kg/injection, schedule: Q04DX003 (ip), vehicle: saline
[24] = dose: 200.0 mg/kg/injection, schedule: Q04DX003 (ip), vehicle: saline
[25] = dose: 400.0 mg/kg/injection, schedule: Q04DX003 (ip), vehicle: saline
[26] = dose: 400.0 mg/kg/injection, schedule: Q04DX003 (ip), vehicle: saline with Tween-80

Measured: T/C

CN1CCC(O)(C(=O)c2ccccc2)CC1
inactive: dose: 100.0 mg/kg/injection, schedule: Q04DX002 (ip), vehicle: saline 99 % of control and 104 % of control | dose: 200.0 mg/kg/injection, schedule: Q04DX002 (ip), vehicle: saline 103 % of control

COc1ccc2c3c1O[C@H](c1ccc(O)cc1)[C@H]3[N+](C)(C)CC2
inactive: dose: 6.25 mg/kg/injection, schedule: Q01DX005 (ip), vehicle: Klucel (hydroxypropylcellulose) (HPC) 107 % of control | dose: 12.5 mg/kg/injection, schedule: Q01DX005 (ip), vehicle: Klucel (hydroxypropylcellulose) (HPC) 110 % of control | [1] 110 % of control | [2] 103 % of control

Cc1ccnc(N)c1N
inactive: dose: 3.13 mg/kg/injection, schedule: Q01DX009 (ip), vehicle: other 89 % of control | dose: 6.25 mg/kg/injection, schedule: Q01DX009 (ip), vehicle: other 96 % of control | dose: 12.5 mg/kg/injection, schedule: Q01DX009 (ip), vehicle: other 109 % of control

Cc1c(O)c(=O)ccn1CCN
inactive: dose: 50.0 mg/kg/injection, schedule: Q01DX005 (ip), vehicle: saline 98 % of control and 102 % of control | dose: 100.0 mg/kg/injection, schedule: Q01DX005 (ip), vehicle: saline 100 % of control and 109 % of control | dose: 200.0 mg/kg/injection, schedule: Q01DX005 (ip), vehicle: saline 99 % of control and 104 % of control | dose: 400.0 mg/kg/injection, schedule: Q01DX005 (ip), vehicle: saline 91 % of control and 95 % of control

CCOC(=O)c1cc([N+](=O)[O-])c[nH]1
inactive: [3] 97 % of control | [4] 96 % of control | dose: 200.0 mg/kg/injection, schedule: Q01DX009 (ip), vehicle: saline with Tween-80 95 % of control | dose: 400.0 mg/kg/injection, schedule: Q01DX009 (ip), vehicle: saline with Tween-80 89 % of control

CCOC(=O)C1C(c2ccc(N(C)C)cc2)c2cc3c(cc2OC1(C)N1CCCC1)OCO3 (configuration not stated)
inactive: [5] 100 % of control | [6] 96 % of control | [7] 93 % of control

CSc1ccc(NC(=O)n2nnc3ccccc32)cc1
inactive: [8] 103 % of control and 106 % of control | [9] 102 % of control and 110 % of control | [10] 100 % of control and 111 % of control | [11] 105 % of control and 109 % of control and 120 % of control | [12] 105 % of control and 117 % of control and 124 % of control | dose: 200.0 mg/kg/injection, schedule: Q01DX009 (ip), vehicle: Klucel (hydroxypropylcellulose) (HPC) 106 % of control and 97 % of control

O=C(NC1CCCCC1)C(=NC1CCCCC1)c1cc(Cl)c(Cl)c(Cl)c1Cl
inactive: [13] 98 % of control | [14] 98 % of control | [15] 87 % of control

O=C(Nc1ccccc1)SCCSC(=S)N1CCCC1
inactive: [2] 103 % of control | [16] 105 % of control | [17] 105 % of control

CSC1(C)C(=O)Nc2cc([N+](=O)[O-])ccc21 (configuration not stated)
inactive: dose: 25.0 mg/kg/injection, schedule: Q01DX009 (ip), vehicle: saline with Tween-80 100 % of control | [3] 99 % of control | [4] 113 % of control

O=S(=O)(c1ccc(N=C=S)cc1)c1ccc(N=C=S)cc1
inactive: [1] 112 % of control

O=C(c1cc(Nc2ccnc3cc(Cl)ccc23)ccc1O)N1CCCCC1
inactive: [18] 120 % of control | [19] 121 % of control

O=C1C(C(=Nc2ccc(Cl)cc2)c2ccccc2)=C(O)c2ccccc21
inactive: dose: 25.0 mg/kg/injection, schedule: Q04DX002 (ip), vehicle: saline with Tween-80 95 % of control | [20] 95 % of control | [21] 95 % of control

COC1=C/C(=C\C=C\c2ccccc2)C(OC)=CC1=O
inactive: dose: 2.5 mg/kg/injection, schedule: Q01DX009 (ip), vehicle: saline with Tween-80 102 % of control | dose: 5.0 mg/kg/injection, schedule: Q01DX009 (ip), vehicle: saline with Tween-80 104 % of control | [22] 108 % of control

Cc1cc(C)n(-c2ccc([N+](=O)[O-])cn2)n1
inactive: [23] 99 % of control | [24] 96 % of control | [25] 99 % of control

O=c1c2cc(O)ccc2oc2cc(O)cc(O)c12
inactive: dose: 10.0 mg/kg/injection, schedule: Q01DX009 (ip), vehicle: saline 104 % of control | dose: 20.0 mg/kg/injection, schedule: Q01DX009 (ip), vehicle: saline 111 % of control | dose: 40.0 mg/kg/injection, schedule: Q01DX009 (ip), vehicle: saline 111 % of control | dose: 80.0 mg/kg/injection, schedule: Q01DX009 (ip), vehicle: saline 105 % of control

CC(C)N(C(=O)c1ccc(Cl)c(Cl)c1)C(C)C
inactive: dose: 12.5 mg/kg/injection, schedule: Q04DX003 (ip), vehicle: saline with Tween-80 102 % of control and 103 % of control | dose: 25.0 mg/kg/injection, schedule: Q04DX003 (ip), vehicle: saline with Tween-80 102 % of control and 97 % of control | [13] 100 % of control and 97 % of control | [14] 103 % of control and 106 % of control (2×) | [15] 105 % of control | [26] 101 % of control

CN(C)N=Nc1cccc(C(N)=O)c1
inactive: [8] 100 % of control | [9] 110 % of control | [10] 116 % of control | [11] 112 % of control | [12] 93 % of control

CC1CN(S(=O)(=O)c2cc(Cl)c(Oc3ccc([N+](=O)[O-])cc3Cl)c(Cl)c2)CC(C)O1 (configuration not stated)
inactive: [5] 106 % of control | [6] 101 % of control | [7] 97 % of control

C1CNC(SCC2CC3CC2C2OC32)=N1 (configuration not stated)
inactive: [2] 98 % of control | [16] 101 % of control

CCC(C(N)=O)C1=CCCCC1 (configuration not stated)
inactive: [14] 104 % of control | [15] 100 % of control | [26] 100 % of control

C=C(C)C(=O)OC1CCC2Cc3occ(C)c3C(OC(=O)C=C(C)C)C2(C)C1C (configuration not stated)
inactive: [22] 103 % of control | dose: 20.0 mg/kg/injection, schedule: Q01DX009 (ip), vehicle: saline with Tween-80 101 % of control | dose: 40.0 mg/kg/injection, schedule: Q01DX009 (ip), vehicle: saline with Tween-80 100 % of control | dose: 80.0 mg/kg/injection, schedule: Q01DX009 (ip), vehicle: saline with Tween-80 98 % of control

O=S(=O)(O)CNc1ccc(Br)cc1
inactive: [23] 99 % of control | [24] 99 % of control | [25] 89 % of control

CN1C(=O)CCCCCCCCCCSc2ccccc21
inactive: [2] 93 % of control | [16] 97 % of control | [17] 88 % of control

C=CCC1CCC(=O)NC1=O (configuration not stated)
inactive: [20] 102 % of control | [21] 102 % of control | dose: 200.0 mg/kg/injection, schedule: Q04DX002 (ip), vehicle: saline with Tween-80 100 % of control | dose: 400.0 mg/kg/injection, schedule: Q04DX002 (ip), vehicle: saline with Tween-80 112 % of control

C=C(C)CNCCN
inactive: dose: 50.0 mg/kg/injection, schedule: Q01DX005 (ip), vehicle: saline with Tween-80 112 % of control | [18] 112 % of control | [19] 112 % of control

CC1OC2=C(C(=O)c3ccccc3C2=O)C(O)C1O (configuration not stated)
inactive: dose: 25.0 mg/kg/injection, schedule: Q01DX001 (ip), vehicle: Klucel (hydroxypropylcellulose) (HPC) 96 % of control | dose: 50.0 mg/kg/injection, schedule: Q01DX001 (ip), vehicle: Klucel (hydroxypropylcellulose) (HPC) 96 % of control

COC1CC(O)OC1C(NC(C)=O)SC12CC3CC(CC(C3)C1)C2 (configuration not stated)
inactive: dose: 100.0 mg/kg/injection, schedule: Q04DX003 (ip), vehicle: Klucel (hydroxypropylcellulose) (HPC) 104 % of control | dose: 200.0 mg/kg/injection, schedule: Q04DX003 (ip), vehicle: Klucel (hydroxypropylcellulose) (HPC) 106 % of control | dose: 400.0 mg/kg/injection, schedule: Q04DX003 (ip), vehicle: Klucel (hydroxypropylcellulose) (HPC) 104 % of control

Reference: PubChem BioAssay AID330 (DTP/NCI, 2004)
